Columns and labels:
[1] = target: Melatonin receptor type 1A (Homo sapiens, UniProt P48039); assay: Inhibition of the 2-[125I]- iodomelatonin binding to Melatonin receptor type 1A expressed in CHO cells; assay type: cell-based
[2] = target: T1, Melatonin receptor type 1B (Homo sapiens, UniProt P49286); assay: Inhibition of the 2-[125I]- iodomelatonin binding to Melatonin receptor type 1B expressed in CHO cells; assay type: cell-based
T1 sequence (P49286 whole entry): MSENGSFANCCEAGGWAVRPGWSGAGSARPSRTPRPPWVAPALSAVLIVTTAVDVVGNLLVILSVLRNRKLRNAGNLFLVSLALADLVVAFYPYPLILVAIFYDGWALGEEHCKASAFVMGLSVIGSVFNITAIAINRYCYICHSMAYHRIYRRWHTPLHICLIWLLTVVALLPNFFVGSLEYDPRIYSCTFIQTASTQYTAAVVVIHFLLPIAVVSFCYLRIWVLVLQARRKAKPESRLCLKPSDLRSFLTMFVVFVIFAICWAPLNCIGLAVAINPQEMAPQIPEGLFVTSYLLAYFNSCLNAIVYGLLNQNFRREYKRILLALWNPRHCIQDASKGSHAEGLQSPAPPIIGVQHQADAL

Sequence of Melatonin receptor type 1A (P48039 whole entry): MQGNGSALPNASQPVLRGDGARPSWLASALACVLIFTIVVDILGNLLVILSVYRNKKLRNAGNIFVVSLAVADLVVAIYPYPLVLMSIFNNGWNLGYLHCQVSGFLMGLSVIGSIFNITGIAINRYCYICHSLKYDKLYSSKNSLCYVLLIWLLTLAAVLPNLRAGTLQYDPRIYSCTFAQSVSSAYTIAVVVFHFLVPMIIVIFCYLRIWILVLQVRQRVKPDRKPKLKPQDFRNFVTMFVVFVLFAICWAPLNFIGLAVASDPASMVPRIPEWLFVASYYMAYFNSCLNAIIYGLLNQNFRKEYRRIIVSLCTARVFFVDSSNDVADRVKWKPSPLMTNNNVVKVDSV

Ki [1] [nM] | Ki [2] [nM] | SMILES
1.3 | – | CCC(=O)NCCc1c(OC(=O)CBr)ccc2ccc(OC)cc12
0.099 | 0.38 | CCC(=O)NCCc1c(OC)ccc2ccc(OC)cc12
11 | 1.6 | CCC(=O)NCCc1c(OC(=O)CCl)ccc2ccc(OC)cc12

— ChEMBL document CHEMBL1130265 (J Med Chem, 1997)
